In paper PMC5589937 (Scientific Reports, 2017):
Residue numbers refer to the chain shown, from its start. Like-named read-outs stand apart in the source and are kept apart here.

B1: hGIIE (Homo sapiens) (protein)
chain: NLVQFGVMIEKMTGKSALQYNDYGCYCGIGGSHWPVDQTDWCCHAHDCCYGRLEKLGCEPKLEKYLFSVSERGIFCAGRTTCQRLTCECDKRAALCFRRNLGTYNRKYAHYPNKLCTGPTPPC

What was measured:
WT hGIIE = target: T1, WT hGIIE (Homo sapiens, UniProt Q9NZK7); test: Inhibition of wild type hGIIE, sPLA2 assay kit (DTPC substrate, DTNB detection); type: biochemical; conditions: WT enzyme 6.42 µM per well; mean ± s.d., n=2; read-out: IC50 against WT hGIIE
T1 construct: The gene encoding for hGIIE protein without signal peptide was amplified by PCR; made in house; host or cells: Pichia pastoris X33 (vector pGAPZαA)
T1 sequence (Q9NZK7 20-142): B1 chain
Description: (§1) Enzymatic Kinetics of hGIIE assay was carried out using sPLA2 Assay kit (Cayman, Ann Arbor, MI, USA). Substrate of this assay is 1, 2-Diheptanoyl Thio-phosphatidylcholine (DTPC). After hydrolysis of the thio ester bond in the sn-2 position by phospholipase A2, free thiols are detected using 5, 5-dithio-bis-nitrobenzoic acid (DTNB). Activity assay was carried out on a 96-well plate at 25 °C. 10 µL DTNB, 10 µL protein sample and 5 µL buffer (25 mM Tris-HCl, pH 7.5, 10 mM CaCl2, 100 mM KCl, 0.3 mM Triton X-100) were pooled in the well, then the reaction was initiated by adding 200 µL substrate solution to the well simultaneously. Absorbance at 414 nm was measured every 1 min for 15 min. […] Protein concentration was adjusted to ensure the absorbance increase of 0.01 to 0.1 per minute. Curve was fitted to Michaelis-Menten equation and Lineweaver-Burk plot for the estimation of Km and Vmax using GraphPad Prism 5, Kcat was calculated by Vmax/enzyme concentration.
(§2) Inhibition of wild type (WT) and mutated hGIIE was analyzed using sPLA2 assay kit as mentioned above. In the assay system, 5 µL assay buffer was replaced by 5 µL of the inhibitor. Different concentrations of compound 8, 14, 24, Me-Indoxam, and LY311727 were prepared. The final concentration of enzyme used per well are as following: WT: 6.42 µM; F5L: 6.4 µM; F97L: 10.48 µM; F5L_F97L: 6.73 µM; G6H: 10.91 µM; G6N: 7.56 µM; N21G: 32.86 µM; N21M: 22.14 µM; N21W: 30 µM. Control reactions without enzyme or inhibitor were carried out. Percent inhibition of every well were calculated. Curve was fitted to the log (inhibitor)-response variable slope and IC50 was calculated using GraphPad Prism 5 (GraphPad).

hGIIE F5L = target: T2, hGIIE F5L (Homo sapiens, UniProt Q9NZK7, F24L); test: Inhibition of hGIIE mutant F5L, sPLA2 assay kit; type: biochemical; conditions: F5L enzyme 6.4 µM; mean ± s.d., n=2; read-out: IC50 against hGIIE F5L
T2 construct: The gene encoding for hGIIE protein without signal peptide was amplified by PCR; made in house; host or cells: Pichia pastoris X33 (vector pGAPZαA)
T2 sequence (Q9NZK7 20-142 F24L): B1 chain with F5L
Description: as §1, §2

hGIIE F97L = target: T3, hGIIE F97L (Homo sapiens, UniProt Q9NZK7, F116L); test: Inhibition of hGIIE mutant F97L, sPLA2 assay kit; type: biochemical; conditions: F97L enzyme 10.48 µM; mean ± s.d., n=2; read-out: IC50 against hGIIE F97L
T3 construct: The gene encoding for hGIIE protein without signal peptide was amplified by PCR; made in house; host or cells: Pichia pastoris X33 (vector pGAPZαA)
T3 sequence (Q9NZK7 20-142 F116L): B1 chain with F97L
Description: as §1, §2

hGIIE F5L_F97L = target: T4, hGIIE F5L_F97L (Homo sapiens, UniProt Q9NZK7, F116L/F24L); test: Inhibition of hGIIE double mutant F5L_F97L, sPLA2 assay kit; type: biochemical; conditions: F5L_F97L enzyme 6.73 µM; mean ± s.d., n=2; read-out: IC50 against hGIIE F5L_F97L
T4 construct: The gene encoding for hGIIE protein without signal peptide was amplified by PCR; made in house; host or cells: Pichia pastoris X33 (vector pGAPZαA)
T4 sequence (Q9NZK7 20-142 F24L/F116L): B1 chain with F5L, F97L
Description: as §1, §2

hGIIE G6H = target: T5, hGIIE G6H (Homo sapiens, UniProt Q9NZK7, G25H); test: Inhibition of hGIIE mutant G6H, sPLA2 assay kit; type: biochemical; conditions: G6H enzyme 10.91 µM; mean ± s.d., n=2; read-out: IC50 against hGIIE G6H
T5 construct: The gene encoding for hGIIE protein without signal peptide was amplified by PCR; made in house; host or cells: Pichia pastoris X33 (vector pGAPZαA)
T5 sequence (Q9NZK7 20-142 G25H): B1 chain with G6H
Description: as §1, §2

hGIIE G6N = target: T6, hGIIE G6N (Homo sapiens, UniProt Q9NZK7, G25N); test: Inhibition of hGIIE mutant G6N, sPLA2 assay kit; type: biochemical; conditions: G6N enzyme 7.56 µM; mean ± s.d., n=2; read-out: IC50 against hGIIE G6N
T6 construct: The gene encoding for hGIIE protein without signal peptide was amplified by PCR; made in house; host or cells: Pichia pastoris X33 (vector pGAPZαA)
T6 sequence (Q9NZK7 20-142 G25N): B1 chain with G6N
Description: as §1, §2

hGIIE N21G = target: T7, hGIIE N21G (Homo sapiens, UniProt Q9NZK7, N40G); test: Inhibition of hGIIE mutant N21G, sPLA2 assay kit; type: biochemical; conditions: N21G enzyme 32.86 µM; mean ± s.d., n=2; read-out: IC50 against hGIIE N21G
T7 construct: The gene encoding for hGIIE protein without signal peptide was amplified by PCR; made in house; host or cells: Pichia pastoris X33 (vector pGAPZαA)
T7 sequence (Q9NZK7 20-142 N40G): B1 chain with N21G
Description: as §1, §2

hGIIE N21M = target: T8, hGIIE N21M (Homo sapiens, UniProt Q9NZK7, N40M); test: Inhibition of hGIIE mutant N21M, sPLA2 assay kit; type: biochemical; conditions: N21M enzyme 22.14 µM; mean ± s.d., n=2; read-out: IC50 against hGIIE N21M
T8 construct: The gene encoding for hGIIE protein without signal peptide was amplified by PCR; made in house; host or cells: Pichia pastoris X33 (vector pGAPZαA)
T8 sequence (Q9NZK7 20-142 N40M): B1 chain with N21M
Description: as §1, §2

hGIIE N21W = target: T9, hGIIE N21W (Homo sapiens, UniProt Q9NZK7, N40W); test: Inhibition of hGIIE mutant N21W, sPLA2 assay kit; type: biochemical; conditions: N21W enzyme 30 µM; mean ± s.d., n=2; read-out: IC50 against hGIIE N21W
T9 construct: The gene encoding for hGIIE protein without signal peptide was amplified by PCR; made in house; host or cells: Pichia pastoris X33 (vector pGAPZαA)
T9 sequence (Q9NZK7 20-142 N40W): B1 chain with N21W
Description: as §1, §2

hGIIE = target: T10, hGIIE (Homo sapiens, UniProt Q9NZK7); conditions: cited from earlier work
T10 construct: The gene encoding for hGIIE protein without signal peptide was amplified by PCR; made in house; host or cells: Pichia pastoris X33 (vector pGAPZαA)
T10 sequence (Q9NZK7 20-142): B1 chain

hGV = conditions: cited from earlier work
hGX = conditions: cited from earlier work
hGIID = tested on: hGIID; parameters: method as in PMID 15028265; conditions: cited from earlier work
hGIB = tested on: hGIB; parameters: method as in PMID 16686528; conditions: cited from earlier work
severe sepsis = tested on: severe sepsis; parameters: method as in PMID 16096451; conditions: trials terminated; experiment group; cited from earlier work
hGIIA = conditions: measure not given; read-out: potency to hGIIA; cited from earlier work
rheumatoid arthritis = tested on: rheumatoid arthritis; parameters: method as in PMID 15742431; conditions: clinically tested; cited from earlier work
cardiovascular diseases = conditions: treatment of cardiovascular diseases; cited from earlier work
[1] = substrate: CCCCCC(=O)OC[C@H](COP(=O)([O-])OCC[N+](C)(C)C)OC(=O)CCCCC; test: purified protein, by the assay type; conditions: other: ITC, 25 °C, 2 µM hGIIE, pH 7.5, 10 mM CaCl2
Description: Reactions were performed with Microcal ITC200 (GE Healthcare) at 25 °C, and data were collected and analyzed by ORIGIN. A multiple injection kinetic assay was conducted using a stirring speed of 750 rpm. 2 µM protein hGIIE (200 µL) in the reaction cell was titrated with 13 × 3 µL injection of phospholipid (10–50 mM) using a 120 s delay between successive injections. The apparent enthalpy (ΔH) for the hydrolysis of phospholipid by hGIIE was determined in a separate experiment in which 1 × 6 µL injections of phospholipid into 2 µM protein hGIIE (200 µL) was made using spacing 1800 s. Buffer solution was carefully matched in both the ligand and enzyme solutions. Mother liquor of phospholipids including DHPG (in water), DHPC (in DMSO), DHPE (in DMSO) (Avanti) with 200 mM concentration were prepared. Working buffer (20 mM DHPG, 50 mM DHPC, 10 mM DHPE) is prepared by diluting the mother liquor with buffer 100 mM Tris, 150 mM KCl, 10 mM CaCl2, pH 7.5.

| Molecule | IC50 (WT hGIIE) [nM] | IC50 (hGIIE F5L) [nM] | IC50 (hGIIE F97L) [nM] | IC50 (hGIIE F5L_F97L) [nM] | IC50 (hGIIE G6H) [nM] | IC50 (hGIIE G6N) [nM] | IC50 (hGIIE N21G) [nM] | IC50 (hGIIE N21M) [nM] | IC50 (hGIIE N21W) [nM] | IC50 (hGIIE; read-out: IC50 hGIIE) [nM] | IC50 (hGV) [nM] | also measured |
| --- | --- | --- | --- | --- | --- | --- | --- | --- | --- | --- | --- | --- |
| Cc1c(C(=O)C(N)=O)c2c(OCC(=O)O)cccc2n1Cc1cccc2ccccc12 [Compound 8] | 280 ± 30 | 250 ± 60 | 480 ± 30 | 250 ± 40 | 3760 ± 860 | 630 ± 50 | 630 ± 20 | 1050 ± 20 | 1270 ± 220 | < 25 | < 330 |  |
| Cc1c(C(=O)C(N)=O)c2c(OCC(=O)O)cccc2n1Cc1cccc(Br)c1 [Compound 14] | 220 ± 20 | 130 ± 40 | 280 ± 70 | 300 ± 20 | 880 ± 310 | 230 ± 30 | 1730 ± 50 | 840 ± 30 | 1940 ± 220 | < 25 | < 330 |  |
| Cc1c(C(=O)C(N)=O)c2c(OCC(=O)O)cccc2n1Cc1ccccc1C(F)(F)F [Compound 24] |  | 110 ± 10 | 250 ± 20 | 140 ± 10 | 540 ± 30 | 270 ± 30 | 2390 ± 400 | 830 ± 220 | 1870 ± 180 | < 25 | < 330 | decreased effect against hGX than hGIIE (hGX): about 50 fold; decreased effect against hGIID in comparison to hGIIE (hGIID): over 100 fold |
| CCc1c(CC(N)=O)c2cc(OCCCP(=O)(O)O)ccc2n1Cc1ccccc1 [LY311727] |  | 1790 ± 140 | 1120 ± 20 | 1000 ± 220 | 14300 ± 390 | 3070 ± 420 | 5130 ± 1070 | 5980 ± 400 | 18000 ± 1370 |  |  |  |
| CCc1c(C(=O)C(N)=O)c2c(OCC(=O)O)cccc2n1Cc1ccccc1 [LY315920, Varespladib] |  |  |  |  |  |  |  |  |  |  | 500 | IC50 (hGX): 75 nM; IC50 (hGIB): 750 nM |
| CCc1c(C(=O)C(N)=O)c2c(OCC(=O)[O-])cccc2n1Cc1ccccc1.[Na+] [LY315920: Na] |  |  |  |  |  |  |  |  |  |  |  | outcome of clinical trials in severe sepsis (severe sepsis): higher mortality rate |
| Cc1c(C(=O)C(N)=O)c2c(OCC(=O)O)cccc2n1Cc1ccccc1-c1ccccc1 [Me-Indoxam] | 210 ± 10 | 160 ± 10 | 260 ± 20 | 240 ± 30 | 300 ± 20 | 140 ± 20 | 1840 ± 30 | 880 ± 10 | 1440 ± 130 |  |  | IC50 (hGIIE; measure not given, read-out: potency to hGIIE): 8 nM; IC50 (hGIIA): 30 nM |
| CCc1c(C(=O)C(N)=O)c2c(OCC(=O)OC)cccc2n1Cc1ccccc1 [Varespladib methyl] |  |  |  |  |  |  |  |  |  |  |  | efficacy in treatment of rheumatoid arthritis (rheumatoid arthritis): ineffective; adverse effects in phase three trials (cardiovascular diseases): increased events of cardiovascular mortality, heart attack, and stroke |
| B1 |  |  |  |  |  |  |  |  |  |  |  | Km [1]: 5.52 ± 1.00 mM; kcat [1]: 3.22 ± 0.30 s⁻¹ |
